The test system of assay [1] is Primary human bronchial epithelial cells from a ΔF508 homozygous CF donor (CF-HBE cells). Put plainly: TECC24 recording of CFTR-mediated transepithelial chloride transport, AUC fold over benchmark VX-809 @10 μM. The assay is classed as cell-based. To be noted: 48 hours incubation, AUC of forskolin-stimulated IEQ. The procedure, abridged: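 Values are the forskolin-to-inhibitor-172 AUC of equivalent Cl− current, derived from transepithelial voltage and resistance, divided by the VX-809 AUC and binned as A <3, B 3–6, C 6–20. Cells were pre-incubated with compound for 48 h at 36.5 °C; the bath (pH 7.4) received benzamil 10 μM, forskolin 10 μM, then CFTRinh-172 20 μM.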

In assay [2] the target is T1, Purified recombinant NBD1 (Homo sapiens, UniProt P13569).
T1 construct: Purified recombinant NBD1 was produced using previously described methods; made in house
T1 sequence (P13569 423-646 limits assumed): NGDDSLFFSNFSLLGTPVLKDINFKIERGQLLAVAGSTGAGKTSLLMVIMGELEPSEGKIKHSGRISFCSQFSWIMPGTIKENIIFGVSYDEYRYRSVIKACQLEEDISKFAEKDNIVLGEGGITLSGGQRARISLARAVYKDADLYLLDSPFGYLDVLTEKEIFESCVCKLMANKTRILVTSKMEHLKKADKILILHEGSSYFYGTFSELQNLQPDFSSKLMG
The experiment in a line: Aggregation analysis using differential static light scattering (DSLS): thermal stability of NBD1. The following applies: NBD1 0.2 mg/ml; Tagg of compound well minus average Tagg of DMSO control wells. The assay is classed as binding. The procedure, abridged: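 ΔTagg is compound-well aggregation temperature minus the DMSO-control mean, each Tagg being the inflection point of light scattering measured by DSLS during a 1 °C/min ramp up to 70 °C. The protein was purified NBD1 (0.2 mg/ml) in pH 7.6 buffer containing 2 mM ATP, 5 mM MgCl2 and 1% glycerol.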

For `CC1(C)CCOCC(c2cccc(CCC(=O)O)c2)n2ccc(n2)-c2cc(ccc2F)Oc2c(F)cc3[nH]ccc3c2COC(=O)N1` (single isomer, unassigned) [Compound 96A, 3-[3-(23,29-difluoro-11,11-dimethyl-13-oxo-8,14,25-trioxa-5,12,20,31-tetrazapentacyclo[24.3.1.12,5.016,24.017,21]hentriaconta-1(30),2(31),3,16,18,21,23,26,28-nonaen-6-yl)phenyl]propanoic acid], the “TECC (test agent AUC divided by VX-809 AUC)” value in assay [1] was “B (a value between 3 and 6 is marked “B”)”. The “DSLS (ΔTagg)” value in assay [2] was “C (a value greater than 10 °C and less than or equal to 25 °C is marked “C”)”.

Regarding `CC1(C)CCOCC(c2cccc(CCC(=O)O)c2)n2ccc(n2)-c2cc(ccc2F)Oc2c(F)cc3[nH]ccc3c2COC(=O)N1` (single isomer, unassigned) [Compound 96B, 3-[3-(23,29-difluoro-11,11-dimethyl-13-oxo-8,14,25-trioxa-5,12,20,31-tetrazapentacyclo[24.3.1.12,5.016,24.017,21]hentriaconta-1(30),2(31),3,16,18,21,23,26,28-nonaen-6-yl)phenyl]propanoic acid], the “TECC (test agent AUC divided by VX-809 AUC)” value in assay [1] is “C (a value between 6 and 20 is marked “C”)”. In addition, the “DSLS (ΔTagg)” value in assay [2] is “C (a value greater than 10 °C and less than or equal to 25 °C is marked “C”)”.

In the case of `Cn1nc2nc1-c1cc(ccc1F)Oc1c(F)cc3[nH]ccc3c1COC(=O)NC(C)(C)CCCCC2c1cccc(CCC(=O)O)c1` (single isomer, unassigned) [Compound 97A, 3-[3-(23,29-difluoro-3,11,11-trimethyl-13-oxo-14,25-dioxa-3,4,12,20,31-pentazapentacyclo-[24.3.1.12,5.016,24.017,21]hentriaconta-1(30),2(31),4,16,18,21,23,26,28-nonaen-6-yl)phenyl]propanoic acid], the “TECC (test agent AUC divided by VX-809 AUC)” value in assay [1] is “B (a value between 3 and 6 is marked “B”)”. Also, the “DSLS (ΔTagg)” value in assay [2] was “C (a value greater than 10 °C and less than or equal to 25 °C is marked “C”)”.

Regarding `Cn1nc2nc1-c1cc(ccc1F)Oc1c(F)cc3[nH]ccc3c1COC(=O)NC(C)(C)CCCCC2c1cccc(CCC(=O)O)c1` (single isomer, unassigned) [Compound 97B, 3-[3-(23,29-difluoro-3,11,11-trimethyl-13-oxo-14,25-dioxa-3,4,12,20,31-pentazapentacyclo-[24.3.1.12,5.016,24.017,21]hentriaconta-1(30),2(31),4,16,18,21,23,26,28-nonaen-6-yl)phenyl]propanoic acid], in assay [1], the “TECC (test agent AUC divided by VX-809 AUC)” value was “B (a value between 3 and 6 is marked “B”)”. Further, the “DSLS (ΔTagg)” value in assay [2] was “C (a value greater than 10 °C and less than or equal to 25 °C is marked “C”)”.

Take `Cn1nc2nc1-c1cc(ccc1F)Oc1c(F)cc3[nH]ccc3c1CCNC(=O)OCC(C)(C)CC[C@@]2(C)c1cccc(CCC(=O)O)c1` (single isomer, unassigned) [Compound 98A]: the “TECC (test agent AUC divided by VX-809 AUC)” value in assay [1] is “C (a value between 6 and 20 is marked “C”)”. Also, the “DSLS (ΔTagg)” value in assay [2] was “C (a value greater than 10 °C and less than or equal to 25 °C is marked “C”)”.

Consider `Cn1nc2nc1-c1cc(ccc1F)Oc1c(F)cc3[nH]ccc3c1CCNC(=O)OCC(C)(C)CC[C@@]2(C)c1cccc(CCC(=O)O)c1` (single isomer, unassigned) [Compound 98B], for which the “TECC (test agent AUC divided by VX-809 AUC)” value in assay [1] was “B (a value between 3 and 6 is marked “B”)”. The “DSLS (ΔTagg)” value in assay [2] is “A (an ΔTagg value less than or equal to 5 °C is marked “A”)”.

On to `Cn1nc2nc1-c1cc(ccc1F)Oc1c(F)cc3[nH]ccc3c1COC(=O)NC(C)(C)CCCC2(C)c1cccc(CCC(=O)O)c1` (single isomer, unassigned) [Compound 99A, 3-[3-(22,28-difluoro-3,6,10,10-tetramethyl-12-oxo-13,24-dioxa-3,4,11,19,30-pentazapentacyclo-[23.3.1.12,5.015,23.016,20]-triaconta-1(29),2(30),4,15,17,20,22,25,27-nonaen-6-yl)phenyl]propanoic acid], for which, in assay [1], the “TECC (test agent AUC divided by VX-809 AUC)” value is “B (a value between 3 and 6 is marked “B”)”. The “DSLS (ΔTagg)” value in assay [2] is “C (a value greater than 10 °C and less than or equal to 25 °C is marked “C”)”.

For `Cn1nc2nc1-c1cc(ccc1F)Oc1c(F)cc3[nH]ccc3c1COC(=O)NC(C)(C)CCCC2(C)c1cccc(CCC(=O)O)c1` (single isomer, unassigned) [Compound 99B, 3-[3-(22,28-difluoro-3,6,10,10-tetramethyl-12-oxo-13,24-dioxa-3,4,11,19,30-pentazapentacyclo-[23.3.1.12,5.015,23.016,20]-triaconta-1(29),2(30),4,15,17,20,22,25,27-nonaen-6-yl)phenyl]propanoic acid], in assay [1], the “TECC (test agent AUC divided by VX-809 AUC)” value was “B (a value between 3 and 6 is marked “B”)”. Also, the “DSLS (ΔTagg)” value in assay [2] was “A (an ΔTagg value less than or equal to 5 °C is marked “A”)”.

Take `Cn1nc2nc1-c1cc(ccc1F)Oc1c(F)cc3[nH]ccc3c1COC(=O)NC(C)(C)COCCC2(C)c1cccc(CCC(=O)O)c1` (single isomer, unassigned) [Compound 100A, 3-[3-(23,29-difluoro-3,6,11,11-tetramethyl-13-oxo-9,14,25-trioxa-3,4,12,20,31-pentazapentacyclo-[24.3.1.12,5.016,24.017,21]hentriaconta-1(30),2(31),4,16,18,21,23,26,28-nonaen-6-yl)phenyl]propanoic acid]: the “TECC (test agent AUC divided by VX-809 AUC)” value in assay [1] is “C (a value between 6 and 20 is marked “C”)”. Moreover, the “DSLS (ΔTagg)” value in assay [2] is “C (a value greater than 10 °C and less than or equal to 25 °C is marked “C”)”.

With `Cn1nc2nc1-c1cc(ccc1F)Oc1c(F)cc3[nH]ccc3c1COC(=O)NC(C)(C)COCCC2(C)c1cccc(CCC(=O)O)c1` (single isomer, unassigned) [Compound 100B, 3-[3-(23,29-difluoro-3,6,11,11-tetramethyl-13-oxo-9,14,25-trioxa-3,4,12,20,31-pentazapentacyclo-[24.3.1.12,5.016,24.017,21]hentriaconta-1(30),2(31),4,16,18,21,23,26,28-nonaen-6-yl)phenyl]propanoic acid], in assay [1], the “TECC (test agent AUC divided by VX-809 AUC)” value is “C (a value between 6 and 20 is marked “C”)”. Further, the “DSLS (ΔTagg)” value in assay [2] is “A (an ΔTagg value less than or equal to 5 °C is marked “A”)”.

For the compound `CC(Cc1cccc(C2(C)CCCCC(C)(C)NC(=O)OCc3c(c(F)cc4[nH]ccc34)Oc3ccc(F)c(c3)-c3nc2nn3C)c1)C(=O)O` (single isomer, unassigned) [Compound 101A, 3-[3-(23,29-difluoro-3,6,11,11-tetramethyl-13-oxo-14,25-dioxa-3,4,12,20,31-pentazapentacyclo[24.3.1.12,5.016,24.017,21]-hentriaconta-1(30),2(31),4,16,18,21,23,26,28-nonaen-6-yl)phenyl]-2-methyl-propanoic acid], the “TECC (test agent AUC divided by VX-809 AUC)” value in assay [1] is “B (a value between 3 and 6 is marked “B”)”. The “DSLS (ΔTagg)” value in assay [2] was “C (a value greater than 10 °C and less than or equal to 25 °C is marked “C”)”.

`CC(Cc1cccc(C2(C)CCCCC(C)(C)NC(=O)OCc3c(c(F)cc4[nH]ccc34)Oc3ccc(F)c(c3)-c3nc2nn3C)c1)C(=O)O` (single isomer, unassigned) [Compound 101B, 3-[3-(23,29-difluoro-3,6,11,11-tetramethyl-13-oxo-14,25-dioxa-3,4,12,20,31-pentazapentacyclo[24.3.1.12,5.016,24.017,21]-hentriaconta-1(30),2(31),4,16,18,21,23,26,28-nonaen-6-yl)phenyl]-2-methyl-propanoic acid]: in assay [1], the “TECC (test agent AUC divided by VX-809 AUC)” value is reported as “A (a TECC value less than 3 is marked “A”)”. Besides, the “DSLS (ΔTagg)” value in assay [2] is “A (an ΔTagg value less than or equal to 5 °C is marked “A”)”.

Turning to `C[C@@H](Cc1cccc(C2(C)CCCC(C)(C)N(C)S(=O)(=O)CCc3c(c(F)cc4[nH]ccc34)Oc3ccc(F)c(c3)-c3nc2nn3C)c1)C(=O)O` (single isomer, unassigned) [Compound 117A], the “TECC (test agent AUC divided by VX-809 AUC)” value in assay [1] is “A (a TECC value less than 3 is marked “A”)”. The “DSLS (ΔTagg)” value in assay [2] is “B (a value above 5 °C and less than or equal to 10 °C is marked “B”)”.

For `C[C@@H](Cc1cccc(C2(C)CCCC(C)(C)N(C)S(=O)(=O)CCc3c(c(F)cc4[nH]ccc34)Oc3ccc(F)c(c3)-c3nc2nn3C)c1)C(=O)O` (single isomer, unassigned) [Compound 117B], the “TECC (test agent AUC divided by VX-809 AUC)” value in assay [1] was “B (a value between 3 and 6 is marked “B”)”. The “DSLS (ΔTagg)” value in assay [2] is “C (a value greater than 10 °C and less than or equal to 25 °C is marked “C”)”.

As to `O=C(O)CCc1cccc(C2CCCCNC(=O)CCc3c(c(F)cc4[nH]ccc34)Oc3ccc(F)c(c3)-c3ncc2[nH]3)c1` (centres unmarked) [Compound 3, 3-[3-(22,28-Difluoro-12-oxo-24-oxa-3,11,19,30-tetrazapentacyclo-[23.3.1.12,5.015,23.016,20]triaconta-1(29),2,4,15,17,20,22,25,27-nonaen-6-yl)phenyl]-propanoic acid], in assay [1], the “TECC (test agent AUC divided by VX-809 AUC)” value is “B (a value between 3 and 6 is marked “B”)”. The “DSLS (ΔTagg)” value in assay [2] was “C (a value greater than 10 °C and less than or equal to 25 °C is marked “C”)”.

Turning to `O=C(O)CCc1cccc(C2CCCCCCNC(=O)CCc3c(c(F)cc4[nH]ccc34)Oc3ccc(F)c(c3)-c3ncc2[nH]3)c1` (centres unmarked) [Compound 4, 3-[3-(24,30-Difluoro-14-oxo-26-oxa-3,13,21,32-tetrazapentacyclo-[25.3.1.12,5.017,25.018,22]dotriaconta-1(31),2,4,17,19,22,24,27,29-nonaen-6-yl)phenyl]propanoic acid], in assay [1], the “TECC (test agent AUC divided by VX-809 AUC)” value was “B (a value between 3 and 6 is marked “B”)”. Moreover, the “DSLS (ΔTagg)” value in assay [2] was “C (a value greater than 10 °C and less than or equal to 25 °C is marked “C”)”.

The values are drawn from patent US20250197420A1, “MACROCYCLIC COMPOUNDS, COMPOSITIONS, AND METHODS OF USING THEREOF” (Sionna Therapeutics Inc., priority 2022, published 2025).
